According to patent US20060069132A1, “Azolecarboxamide herbicides” (priority 2004, published 2006):

Tests used:
[1] = tested on: velvetleaf; assay: Test B pre-/postemergence herbicide test; format: in vivo, Abutilon theophrasti; conditions: for Velvetleaf plant response rating (0 to 100 scale) / Plant response rating, Velvetleaf: preemergence; for Velvetleaf plant response rating: postemergence, scale 0 (no effect) to 100 (complete control)
In short: (§1)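 Flooded paddy rice and barnyardgrass were treated at the 2-leaf stage; upland plantings received compound either on sown seed or on 1- to 4-leaf seedlings. All were kept 13–15 days in a greenhouse and scored visually, 0–100, relative to untreated plants.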

[2] = tested on: barnyardgrass; assay: Test B flooded paddy test; format: in vivo, Echinochloa crus-galli; conditions: 1000 g ai/ha, visual rating, scale 0 to 100 (0 no effect, 100 complete control), 13 to 15 days
In short: (§2)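 Formulated test chemicals went onto postemergence plants measuring 2 to 18 cm, at one to four leaves. For the paddy assay, species had reached two leaves. Scoring took place 13–15 days later by eye, relative to untreated plants, using 0 for no effect up to 100 for full control.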

[3] = tested on: lambsquarters; assay: Test B pre-/postemergence herbicide test; format: in vivo, Chenopodium album; conditions: for Lambsquarters plant response rating (0 to 100 scale) / Plant response rating, Lambsquarters: preemergence; for Lambsquarters plant response rating: postemergence, scale 0 (no effect) to 100 (complete control)
In short: as §1

[4] = tested on: wheat; assay: Test B postemergence herbicide test; format: in vivo, Triticum aestivum; design: key to Wheat plant response rating: 0 = no effect, 100 = complete control; conditions: postemergence, visual rating, scale 0 (no effect) to 100 (complete control)
In short: as §2

[5] = tested on: morningglory; assay: Test B pre-/postemergence herbicide test; format: in vivo, Ipomoea coccinea; conditions: for Morningglory plant response rating: postemergence, scale 0 (no effect) to 100 (complete control)
In short: (§3)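 Plants compared with untreated controls 13–15 days post-treatment and given a visual 0–100 injury score. Applications: preemergence to seeds; postemergence at 1- to 4-leaf (2–18 cm); paddy species flooded, 2-leaf stage. Vehicle non-phytotoxic, surfactant included.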

[6] = tested on: rice; assay: Test B flooded paddy test; format: in vivo, Oryza sativa; conditions: 1000 g ai/ha, visual rating, scale 0 to 100 (0 no effect, 100 complete control), 13 to 15 days
In short: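 After treating 2-leaf paddy plants or 2–18 cm postemergence plants (1 to 4 leaves) with formulated chemical, researchers kept them in a greenhouse for 13–15 days. Effects were judged visually versus controls: 0 indicates none, 100 total control.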

[7] = tested on: barnyardgrass; assay: Test B pre-/postemergence herbicide test; format: in vivo, Echinochloa crus-galli; conditions: for Barnyardgrass plant response rating (0 to 100 scale) / Plant response rating, Barnyardgrass: preemergence; for Barnyardgrass plant response rating: postemergence, scale 0 (no effect) to 100 (complete control)
In short: as §3

[8] = tested on: Surinam grass; assay: Test B pre-/postemergence herbicide test; format: in vivo, Urochloa decumbens; conditions: for Surinam Grass plant response rating (0 to 100 scale) / Plant response rating, Surinam Grass: preemergence; for Surinam Grass plant response rating: postemergence, scale 0 (no effect) to 100 (complete control)
In short: as §1

[9] = tested on: ducksalad; assay: Test B flooded paddy test; format: in vivo, Heteranthera limosa; conditions: 1000 g ai/ha, visual rating, scale 0 to 100 (0 no effect, 100 complete control), 13 to 15 days
In short: as §2

[10] = tested on: small flower umbrella sedge; assay: Test B flooded paddy test; format: in vivo, Cyperus difformis; conditions: 1000 g ai/ha, visual rating, scale 0 to 100 (0 no effect, 100 complete control), 13 to 15 days
In short: as §2

[11] = tested on: blackgrass; assay: Test B postemergence herbicide test; format: in vivo, Alopecurus myosuroides; conditions: postemergence, visual rating, scale 0 (no effect) to 100 (complete control)
In short: as §2

[12] = tested on: cocklebur; assay: Test B pre-/postemergence herbicide test; format: in vivo, Xanthium strumarium; conditions: for Cocklebur plant response rating (0 to 100 scale) / Plant response rating, Cocklebur: preemergence; for Cocklebur plant response rating: postemergence, scale 0 (no effect) to 100 (complete control)
In short: as §3

[13] = tested on: rice; assay: Test B pre-/postemergence herbicide test; format: in vivo, Oryza sativa; conditions: preemergence; for Rice plant response rating (0 to 100 scale): 125 g ai/ha; for Plant response rating, Rice: 500 g ai/ha
In short: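 Evaluation is visual, comparing treated with control plants on a scale where 0 means no effect and 100 means full control. Treatments were preemergence, or postemergence on seedlings 2–18 cm tall, and held 13–15 days in the greenhouse.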

[14] = tested on: pigweed; assay: Test B pre-/postemergence herbicide test; format: in vivo, Amaranthus retroflexus; conditions: for Pigweed plant response rating (0 to 100 scale) / Plant response rating, Pigweed: preemergence; for Pigweed plant response rating: postemergence, scale 0 (no effect) to 100 (complete control)
In short: as §1

[15] = tested on: corn; assay: Test B pre-/postemergence herbicide test; format: in vivo, Zea mays; conditions: for Corn plant response rating (0 to 100 scale) / Plant response rating, Corn: preemergence; for Corn plant response rating: postemergence, scale 0 (no effect) to 100 (complete control)
In short: as §1

[16] = tested on: wild oat; assay: Test B postemergence herbicide test; format: in vivo, Avena fatua; conditions: postemergence, visual rating, scale 0 (no effect) to 100 (complete control)
In short: as §2

[17] = tested on: giant foxtail; assay: Test B pre-/postemergence herbicide test; format: in vivo, Setaria faberi; conditions: for Foxtail, Giant plant response rating (0 to 100 scale) / Plant response rating, Foxtail, Giant: preemergence; for Foxtail, Giant plant response rating: postemergence, scale 0 (no effect) to 100 (complete control)
In short: as §1

[18] = tested on: large crabgrass; assay: Test B pre-/postemergence herbicide test; format: in vivo, Digitaria sanguinalis; conditions: for Crabgrass, Large plant response rating (0 to 100 scale) / Plant response rating, Crabgrass, Large: preemergence; for Crabgrass, Large plant response rating: postemergence, scale 0 (no effect) to 100 (complete control)
In short: as §1

[19] = 125 g ai/ha, 0 = no effect, 100 = complete control
[20] = 500 g ai/ha, visual rating 0-100, 0 no effect, 100 complete control
[21] = 0 = no effect, 100 = complete control
[22] = 500 g ai/ha, visual rating, 0 = no effect, 100 = complete control

CCNC(=O)c1cccc(NC(=O)c2nn(C(C)(C)C)cc2C(F)(F)F)c1 [Compound 170]
60: Lambsquarters plant response rating ([3]; 125 g ai/ha, visual rating)
80: Plant response rating, Lambsquarters [3, 20] | Morningglory plant response rating ([5]; 500 g ai/ha, visual rating) | Plant response rating, Crabgrass, Large [18, 20]
90: Plant response rating, Pigweed [14, 20]
10: Velvetleaf plant response rating ([1]; 125 g ai/ha, visual rating) | Barnyardgrass plant response rating [2] | Plant response rating, Morningglory ([5]; 500 g ai/ha, visual rating 0-100, 0 no effect, 100 complete control, preemergence) | Barnyardgrass plant response rating ([7]; 500 g ai/ha, visual rating) | Surinam Grass plant response rating ([8]; 125 g ai/ha, visual rating) | Surinam Grass plant response rating ([8]; 500 g ai/ha, visual rating) | Corn plant response rating ([15]; 500 g ai/ha, visual rating) | Oat, Wild plant response rating ([16]; 125 g ai/ha) | Oat, Wild plant response rating ([16]; 500 g ai/ha) | Foxtail, Giant plant response rating ([17]; 500 g ai/ha, visual rating) | Crabgrass, Large plant response rating ([18]; 125 g ai/ha, visual rating) | Crabgrass, Large plant response rating ([18]; 500 g ai/ha, visual rating)
70: Lambsquarters plant response rating ([3]; 500 g ai/ha, visual rating)
20: Plant response rating, Velvetleaf [1, 20] | Velvetleaf plant response rating ([1]; 500 g ai/ha, visual rating) | Rice plant response rating [6] | Sedge, Umbrella plant response rating [10] | Plant response rating, Foxtail, Giant [17, 20] | Crabgrass, Large plant response rating (0 to 100 scale) [18, 19]
0: Velvetleaf plant response rating (0 to 100 scale) [1, 19] | Lambsquarters plant response rating (0 to 100 scale) [3, 19] | Wheat plant response rating ([4]; 125 g ai/ha) | Wheat plant response rating ([4]; 500 g ai/ha) | Morningglory plant response rating (0 to 100 scale) ([5]; 125 g ai/ha, 0 = no effect, 100 = complete control, preemergence) | Barnyardgrass plant response rating (0 to 100 scale) [7, 19] | Barnyardgrass plant response rating ([7]; 125 g ai/ha, visual rating) | Surinam Grass plant response rating (0 to 100 scale) [8, 19] | Ducksalad plant response rating [9] | Blackgrass plant response rating ([11]; 125 g ai/ha) | Blackgrass plant response rating ([11]; 500 g ai/ha) | Cocklebur plant response rating (0 to 100 scale) [12, 19] | Plant response rating, Cocklebur [12, 20] | Cocklebur plant response rating ([12]; 125 g ai/ha, visual rating) | Cocklebur plant response rating ([12]; 500 g ai/ha, visual rating) | Rice plant response rating (0 to 100 scale) [13, 21] | Plant response rating, Rice ([13]; visual rating 0-100, 0 no effect, 100 complete control) | Pigweed plant response rating (0 to 100 scale) [14, 19] | Corn plant response rating (0 to 100 scale) [15, 19] | Plant response rating, Corn [15, 20] | Corn plant response rating ([15]; 125 g ai/ha, visual rating) | Foxtail, Giant plant response rating (0 to 100 scale) [17, 19] | Foxtail, Giant plant response rating ([17]; 125 g ai/ha, visual rating)
50: Pigweed plant response rating ([14]; 500 g ai/ha, visual rating)
30: Morningglory plant response rating ([5]; 125 g ai/ha, visual rating) | Plant response rating, Barnyardgrass [7, 20] | Plant response rating, Surinam Grass [8, 20] | Pigweed plant response rating ([14]; 125 g ai/ha, visual rating)

CCc1nn(C(C)(C)C)cc1C(=O)Nc1cc(C(=O)N(C)CC)ccc1F [Compound 224]
70: Velvetleaf plant response rating (0 to 100 scale) [1, 19] | Lambsquarters plant response rating ([3]; 500 g ai/ha, visual rating) | Morningglory plant response rating ([5]; 500 g ai/ha, visual rating) | Plant response rating, Corn [15, 22] | Plant response rating, Foxtail, Giant [17, 22]
20: Velvetleaf plant response rating ([1]; 125 g ai/ha, visual rating) | Surinam Grass plant response rating ([8]; 500 g ai/ha, visual rating) | Cocklebur plant response rating (0 to 100 scale) [12, 19] | Corn plant response rating (0 to 100 scale) [15, 19] | Corn plant response rating ([15]; 500 g ai/ha, visual rating) | Foxtail, Giant plant response rating ([17]; 125 g ai/ha, visual rating) | Crabgrass, Large plant response rating ([18]; 500 g ai/ha, visual rating)
30: Wheat plant response rating ([4]; 500 g ai/ha) | Plant response rating, Morningglory ([5]; 500 g ai/ha, visual rating, 0 = no effect, 100 = complete control, preemergence) | Morningglory plant response rating ([5]; 125 g ai/ha, visual rating) | Barnyardgrass plant response rating (0 to 100 scale) [7, 19] | Barnyardgrass plant response rating ([7]; 500 g ai/ha, visual rating) | Rice plant response rating (0 to 100 scale) [13, 21] | Oat, Wild plant response rating ([16]; 500 g ai/ha) | Foxtail, Giant plant response rating ([17]; 500 g ai/ha, visual rating) | Crabgrass, Large plant response rating (0 to 100 scale) [18, 19]
10: Barnyardgrass plant response rating ([7]; 125 g ai/ha, visual rating) | Surinam Grass plant response rating ([8]; 125 g ai/ha, visual rating) | Blackgrass plant response rating ([11]; 500 g ai/ha) | Cocklebur plant response rating ([12]; 125 g ai/ha, visual rating) | Corn plant response rating ([15]; 125 g ai/ha, visual rating) | Foxtail, Giant plant response rating (0 to 100 scale) [17, 19] | Crabgrass, Large plant response rating ([18]; 125 g ai/ha, visual rating)
90: Barnyardgrass plant response rating [2] | Rice plant response rating [6] | Plant response rating, Barnyardgrass [7, 22]
80: Ducksalad plant response rating [9] | Sedge, Umbrella plant response rating [10] | Plant response rating, Rice ([13]; visual rating, 0 = no effect, 100 = complete control) | Pigweed plant response rating (0 to 100 scale) [14, 19]
60: Velvetleaf plant response rating ([1]; 500 g ai/ha, visual rating) | Lambsquarters plant response rating ([3]; 125 g ai/ha, visual rating) | Surinam Grass plant response rating (0 to 100 scale) [8, 19] | Pigweed plant response rating ([14]; 500 g ai/ha, visual rating)
40: Cocklebur plant response rating ([12]; 500 g ai/ha, visual rating) | Pigweed plant response rating ([14]; 125 g ai/ha, visual rating)
0: Wheat plant response rating ([4]; 125 g ai/ha) | Blackgrass plant response rating ([11]; 125 g ai/ha) | Oat, Wild plant response rating ([16]; 125 g ai/ha)
100: Plant response rating, Velvetleaf [1, 22] | Lambsquarters plant response rating (0 to 100 scale) [3, 19] | Plant response rating, Lambsquarters [3, 22] | Plant response rating, Surinam Grass [8, 22] | Plant response rating, Pigweed [14, 22] | Plant response rating, Crabgrass, Large [18, 22]
50: Plant response rating, Cocklebur [12, 22]
